From US20080038374A1, “New Use” (Lipopeptide AB, priority 2004, published 2008)

Key:
hCAP18 = hCAP18 mRNA in acute surgical wounds of healthy volunteers, Real-Time RT-PCR; type: in vivo, human; conditions: topical, 24 h, nine probands, relative to vaseline control wound
Description: To assess whether treatment with a vitamin D compound can further enhance the up-regulation of hCAP18 during acute skin injury, fresh surgical wounds in healthy volunteers (n=9) were treated with vitamin D ointment.
(§1) The investigation was non-randomized, single blinded including four females and five males, age 22-30 years. Only fair skinned, young and healthy individuals were included and the tissue was obtained from the same body location in a non-sun exposed area. Each individual obtained 3 wounds in the left and the right inguinal region, respectively. The topical treatment with vitamin D was applied on one side and the control treatment on the contra lateral side. To each of the wounds on one side, 25 μg calcipotriol in 0.5 g ointment (Daivonex, LEO Pharma, Malmo, Sweden) was applied to a total test area of 2×2.25 cm, including one wound with surrounding intact skin. The control wounds in the opposite inguinal region were treated with vaseline (ACO, Stockholm, Sweden). All wounds were covered with inert dressing (Melolin, Smith and Nephew, Hull, U K; Mefix, Molnlycke A B, Gothenburg, Sweden; Tegaderm, 3M Health Care, St. Paul, USA). After 12 hours the dressing was changed and the treatment was repeated. […]
Expression of hCAP18 mRNA was quantified by Real-Time PCR, as described in Example 1. […]

hCAP18/LL-37 = assay: hCAP18 and LL-37 protein in acute wounds, Western blot; type: in vivo, human
Description: as §1, with “repeated. In the first four individuals investigated the bandage was removed at 24 hours and the wounds were excised with a 6 mm biopsy punch and snap frozen.” for “repeated.”
Protein was calculated from frozen biopsies from patients (n=5) cut in 50 μm sections and homogenized. […] Protein concentrations were measured by Protein Assay Kit (Bio-Rad Laboratories, Hercules, USA) based on the Bradford method (Bradford 1976). […]

For `C=C1/C(=C\C=C2/CCC[C@]3(C)[C@@H]([C@H](C)/C=C/[C@@H](O)C4CC4)CC[C@@H]23)C[C@@H](O)C[C@@H]1O` [calcipotriol], the “up-regulation of hCAP18 mRNA in acute wounds” value (hCAP18) was “enhances the up-regulation of hCAP18 mRNA”, the “immunoreactive bands of the processed peptide LL-37 versus control wounds” value (hCAP18/LL-37) was “in all three individuals, stronger immunoreactive bands” and the “immunoreactive bands of the 18 kDa hCAP18 holoprotein versus control wounds” value (hCAP18/LL-37; 24 and 48 hours, five individuals) was “three of the five individuals investigated demonstrated stronger immunoreactive bands”.
